Assay results taken from PMC11720030, “Inhibitory Activity of N- and S-Functionalized Monoterpene Diols Towards Monoamine Oxidases A and B” (International Journal of Molecular Sciences, 2024).

Columns and labels:
Type in all cases: biochemical
MAO-A [1] = biological target: T1, MAO-A (Mus musculus, UniProt Q64133); experiment: fluorescent kynuramine MAO activity assay in crude mouse brain mitochondria
T1 construct: gene Maoa
T1 sequence (Q64133 1-526): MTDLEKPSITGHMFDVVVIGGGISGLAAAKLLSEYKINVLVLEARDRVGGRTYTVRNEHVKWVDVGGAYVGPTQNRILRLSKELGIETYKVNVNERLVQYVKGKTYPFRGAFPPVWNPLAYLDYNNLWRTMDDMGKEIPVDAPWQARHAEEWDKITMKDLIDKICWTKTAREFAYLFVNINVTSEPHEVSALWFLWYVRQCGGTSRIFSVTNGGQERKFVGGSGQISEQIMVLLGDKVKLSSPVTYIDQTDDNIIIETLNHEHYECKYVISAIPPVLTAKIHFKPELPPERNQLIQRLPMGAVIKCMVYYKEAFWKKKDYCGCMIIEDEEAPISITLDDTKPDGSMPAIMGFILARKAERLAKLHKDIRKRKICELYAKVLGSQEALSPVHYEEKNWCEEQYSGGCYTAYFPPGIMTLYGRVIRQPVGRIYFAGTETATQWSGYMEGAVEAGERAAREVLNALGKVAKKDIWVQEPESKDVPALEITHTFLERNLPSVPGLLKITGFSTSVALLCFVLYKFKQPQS

MAO-B [2] = biological target: T2, MAO-B (Mus musculus, UniProt Q8BW75); experiment: residual MAO-B activity at […], fluorescent kynuramine assay in crude mouse brain mitochondria; details: read-out: MAO-B, % ± SD
T2 construct: gene Maob
T2 sequence (Q8BW75 2-520): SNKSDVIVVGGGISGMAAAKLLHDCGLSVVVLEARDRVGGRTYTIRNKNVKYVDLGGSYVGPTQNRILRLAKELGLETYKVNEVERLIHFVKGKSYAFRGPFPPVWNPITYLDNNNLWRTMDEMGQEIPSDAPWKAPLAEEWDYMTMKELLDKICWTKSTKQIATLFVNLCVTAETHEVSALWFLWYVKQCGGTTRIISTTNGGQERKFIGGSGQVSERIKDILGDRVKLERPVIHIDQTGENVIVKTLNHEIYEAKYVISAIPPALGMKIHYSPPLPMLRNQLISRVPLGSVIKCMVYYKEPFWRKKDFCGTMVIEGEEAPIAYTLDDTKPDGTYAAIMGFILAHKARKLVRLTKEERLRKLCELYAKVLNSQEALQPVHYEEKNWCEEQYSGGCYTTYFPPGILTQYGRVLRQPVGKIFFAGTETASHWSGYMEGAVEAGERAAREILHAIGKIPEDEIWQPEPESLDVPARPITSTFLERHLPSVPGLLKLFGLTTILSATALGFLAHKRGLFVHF

MAO-B [3] = biological target: T2, MAO-B; experiment: fluorescent kynuramine MAO activity assay in crude mouse brain mitochondria
MAO-A [4] = biological target: T1, MAO-A; experiment: residual MAO-A activity at […], fluorescent kynuramine assay in crude mouse brain mitochondria; details: read-out: MAO-A, % ± SD

| SMILES | activity at 100 µM (MAO-B [2]) | IC50 (MAO-A [1]) | further results |
| --- | --- | --- | --- |
| C#CCN(C)CCCOc1ccc(Cl)cc1Cl [clorgiline, reference compound] |  | 0.00136 µM |  |
| C=C(CNc1ccc(C)cc1C)[C@@H]1CC=C(C)[C@@H](O)[C@@H]1O [compound 28, (1R,2R,6S)-6-(3-(2,4-Dimethylphenylamino)prop-1-en-2-yl)-3-methylcyclohex-3-ene-1,2-diol] |  | 178 ± 44 µM |  |
| C=C(CNc1ccccc1C(C)=O)[C@@H]1CC=C(C)[C@@H](O)[C@@H]1O [compound 30, 1-(2-(2-((1S,5R,6R)-5,6-Dihydroxy-4-methylcyclohex-3-enyl)allylamino)phenyl)ethanone] |  |  | IC50 (MAO-B [3]): 95 ± 5 µM; activity at 100 µM (MAO-A [4]): 57 ± 1% |

The next lines start with results.

| activity at 100 µM (MAO-B [2]) | SMILES | IC50 (MAO-A [1]) | further results |
| --- | --- | --- | --- |
| 66 ± 0.1% | C=C(CNc1ccc(C)cc1)[C@@H]1CC=C(C)[C@@H](O)[C@@H]1O [compound 27, (1R,2R,6S)-3-Methyl-6-(3-(p-tolylamino)prop-1-en-2-yl)cyclohex-3-ene-1,2-diol] |  |  |
| 66 ± 2% | C=C(CNc1cccc(C(C)=O)c1)[C@@H]1CC=C(C)[C@@H](O)[C@@H]1O [compound 31, 1-(3-(2-((1S,5R,6R)-5,6-Dihydroxy-4-methylcyclohex-3-enyl)allylamino)phenyl)ethanone] |  |  |
